Measured values from patent publication US9822115B2, “Nitrogen containing compounds and their use as antibacterial agents” (WOCKHARDT LIMITED, priority 2014, dated 2017).
Values after ≈ are worked out from the molar mass of the structure shown.

Columns and labels:
Assay in all cases: Antibacterial activity, MIC by agar dilution (CLSI)
Type in all cases: cell-based
E. coli M 49 = conditions: Escherichia coli, M49, Table 3
Procedure: (§1) The biological activity of representative compounds according to the invention against various bacterial strains was investigated. In a typical study, overnight grown bacterial cultures were diluted appropriately and inoculated on the agar media containing doubling dilutions of the test compounds. Observations for growth or no growth was performed after 16-20 hours of incubation at 35±2° C. in the ambient air. The overall procedure was performed as per Clinical and Laboratory Standards Institute (CLSI) recommendations, (Clinical and Laboratory Standards Institute (CLSI), Performance Standards for Antimicrobial Susceptibility Testing, 20th Informational Supplement, M07-A9, Volume 32, No. 2, 2012). Molten Mueller Hinton Agar (BD, USA) containing serial dilutions of each antibacterial agent were poured on to the plates and allowed to solidify. Appropriate suspensions from the freshly grown cultures were prepared in normal saline so that about 10^4 CFU/spot of the organism was delivered on to the drug containing agar plates using automated multipoint inoculator (Mast, UK). The plates were incubated in Biochemical oxygen demand (BOD) incubator at 37° C. for 18 hours and then examined for growth.
(§2) Table 3 details the antibacterial activity of representative compound of Formula (I), Sodium salt of (2S,5R)-Sulfuric acid mono-[2-(N′-(4-hydroxyphenyl-acetyl)-hydrazinocarbonyl)-7-oxo-1,6-diaza-bicyclo[3.2.1]oct-6-yl]ester (Compound of Example 1) and Sodium salt of (2S,5R)-Sulfuric acid mono-[2-(N′-(pyridine-2-yl-acetyl)-hydrazinocarbonyl)-7-oxo-1,6-diaza-bicyclo[3.2.1]oct-6-yl] ester (Compound of Example 8), against various Multi Drug Resistant (MDR) Gram-negative bacterial strains.

C. frundaii 58 MP = conditions: Table 3
Procedure: as §1, §2

K. pneumoniae B 88 = conditions: Klebsiella pneumoniae, B88, Table 3
Procedure: as §1, §2

P. aeruginosa PAO1 = conditions: Pseudomonas aeruginosa, Table 3
Procedure: as §1, §2

K. pneumoniae S 21 = conditions: Klebsiella pneumoniae, S21, Table 3
Procedure: as §1, §2

P. aeruginosa R 20 = conditions: Pseudomonas aeruginosa, R20, Table 3
Procedure: as §1, §2

K. pneumoniae H 525 = conditions: Klebsiella pneumoniae, H525, Table 3
Procedure: as §1, §2

E. cloacae M 20 = conditions: Enterobacter cloacae, M20, Table 3
Procedure: as §1, §2

E. coli NCTC 13352 = conditions: Escherichia coli, NCTC13352, Table 3
Procedure: as §1, §2

| SMILES | MIC (E. coli M 49) | MIC (C. frundaii 58 MP) | MIC (K. pneumoniae B 88) | MIC (P. aeruginosa PAO1) | MIC (K. pneumoniae S 21) | MIC (P. aeruginosa R 20) | MIC (K. pneumoniae H 525) | MIC (E. cloacae M 20) | MIC (E. coli NCTC 13352) |
| --- | --- | --- | --- | --- | --- | --- | --- | --- | --- |
| O=C(Cc1ccc(O)cc1)NNC(=O)[C@@H]1CC[C@@H]2CN1C(=O)N2OS(=O)(=O)[O-].[Na+] [Example 1, Sodium Salt of (2S,5R)-Sulfuric Acid mono-[2-(N′-(4-hydroxyphenyl-acetyl)-hydrazinocarbonyl)-7-oxo-1,6-diaza-bicyclo[3.2.1]oct-6-yl]ester] | 2 mg/L | 32 mg/L | 0.5 mg/L | > 32 mg/L | 2 mg/L | > 32 mg/L | 0.5 mg/L | 1 mg/L | 0.25 mg/L |
| NCCOc1ccccc1CC(=O)NNC(=O)[C@@H]1CC[C@@H]2CN1C(=O)N2OS(=O)(=O)O [Example 2, (2S,5R)-Sulfuric Acid mono-[2-(N′-{2-[2-(2-amino-ethoxy)-phenyl]-acetyl}-hydrazinocarbonyl)-7-oxo-1,6-diaza-bicyclo[3.2.1]oct-6-yl]ester] | 2 mg/L (≈ 4.37 µM) | 16 mg/L (≈ 35 µM) | > 32 mg/L | > 32 mg/L | 2 mg/L (≈ 4.37 µM) | > 32 mg/L | 1 mg/L (≈ 2.19 µM) | 2 mg/L (≈ 4.37 µM) | 1 mg/L (≈ 2.19 µM) |
